Measurements taken from ChEMBL document CHEMBL1127139, “Synthesis and -lactamase inhibitory activity of 6-hydroxyethyl thiaclavulanic acid” (Bioorg Med Chem Lett, 1993).
Values after ≈ are worked out from the molar mass of the structure shown.

Columns and labels:
[1] = biological target: Beta-lactamase (Enterobacter cloacae) (UniProt P05364); assay: Tested for inhibitory activity against beta-lactamase (groupI) Enterobacter cloacae P99 in presence of ampicillin + 80 ug/mL of compound
[2] = biological target: Beta-lactamase TEM (Escherichia coli) (UniProt P62593); assay: Tested for inhibitory activity against beta-lactamase (groupIII) Escherichia coli RPI in presence of ampicillin + 20 ug/mL of compound
[3] = biological target: Beta-lactamase TEM (Escherichia coli) (UniProt P62593); assay: Tested for inhibitory activity against beta-lactamase (groupIII) Escherichia coli RPI in presence of ampicillin + 80 ug/mL of compound
[4] = biological target: Beta-lactamase OXA-1 (Escherichia coli) (UniProt P13661); assay: Tested for inhibitory activity against beta-lactamase (groupV) Escherichia coli R57b in presence of ampicillin + 20 ug/mL of compound
[5] = biological target: Beta-lactamase OXA-1 (Escherichia coli) (UniProt P13661); assay: Tested for inhibitory activity against beta-lactamase (groupV) Escherichia coli R57b in presence of ampicillin + 80 ug/mL of compound
[6] = biological target: Beta-lactamase OXA-1 (Escherichia coli) (UniProt P13661); assay: Tested for inhibitory activity against beta-lactamase (groupV) Escherichia coli RGN in presence of ampicillin + 20 ug/mL of compound
[7] = biological target: Beta-lactamase OXA-1 (Escherichia coli) (UniProt P13661); assay: Tested for inhibitory activity against beta-lactamase (groupV) Escherichia coli RGN in presence of ampicillin + 80 ug/mL of compound
[8] = biological target: T1, Beta-lactamase OXA-9 (Klebsiella aerogenes) (UniProt P0A3M4); assay: Tested for inhibitory activity against beta-lactamase (groupIV) Klebsiella aerogenes 1082E in presence of ampicillin + 20 ug/mL of compound
T1 sequence (whole entry): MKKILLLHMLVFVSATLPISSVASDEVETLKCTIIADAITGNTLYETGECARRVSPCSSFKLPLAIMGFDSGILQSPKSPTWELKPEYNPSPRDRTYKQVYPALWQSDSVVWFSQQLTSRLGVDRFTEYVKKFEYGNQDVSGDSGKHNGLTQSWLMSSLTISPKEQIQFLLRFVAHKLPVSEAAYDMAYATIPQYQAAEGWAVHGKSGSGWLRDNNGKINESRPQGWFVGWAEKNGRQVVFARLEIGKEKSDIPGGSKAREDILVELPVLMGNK

[9] = biological target: T1, Beta-lactamase OXA-9 (Klebsiella aerogenes); assay: Tested for inhibitory activity against beta-lactamase (groupIV) Klebsiella aerogenes 1082E in presence of ampicillin + 80 ug/mL of compound
[10] = biological target: Beta-lactamase (Staphylococcus aureus) (UniProt P00807); assay: Tested for inhibitory activity against beta-lactamase (groupII) staphylococcus aureus 39/2 strain in presence of ampicillin + 20 ug/mL of compound
[11] = biological target: Beta-lactamase (Staphylococcus aureus) (UniProt P00807); assay: Tested for inhibitory activity against beta-lactamase (groupII) staphylococcus aureus 39/2 strain in presence of ampicillin + 80 ug/mL of compound
[12] = biological target: Beta-lactamase OXA-1 (Escherichia coli) (UniProt P13661); assay: Tested for inhibitory activity against beta-lactamase (groupV) Escherichia coli R57b
[13] = biological target: T1, Beta-lactamase OXA-9 (Klebsiella aerogenes); assay: Tested for inhibitory activity against beta-lactamase (groupIV) Klebsiella aerogenes 1082E
[14] = biological target: Beta-lactamase TEM (Escherichia coli) (UniProt P62593); assay: Tested for inhibitory activity against beta-lactamase (groupIII) Escherichia coli RPI
[15] = biological target: Beta-lactamase (Staphylococcus aureus) (UniProt P00807); assay: Tested for inhibitory activity against beta-lactamase (groupII) staphylococcus aureus 39/2 strain
[16] = biological target: Beta-lactamase (Enterobacter cloacae) (UniProt P05364); assay: Tested for inhibitory activity against beta-lactamase (groupI) Enterobacter cloacae P99
[17] = biological target: Beta-lactamase OXA-1 (Escherichia coli) (UniProt P13661); assay: Tested for inhibitory activity against beta-lactamase (groupV) Escherichia coli RGN

Chain of Beta-lactamase OXA-1 (Escherichia coli) (P13661 whole entry): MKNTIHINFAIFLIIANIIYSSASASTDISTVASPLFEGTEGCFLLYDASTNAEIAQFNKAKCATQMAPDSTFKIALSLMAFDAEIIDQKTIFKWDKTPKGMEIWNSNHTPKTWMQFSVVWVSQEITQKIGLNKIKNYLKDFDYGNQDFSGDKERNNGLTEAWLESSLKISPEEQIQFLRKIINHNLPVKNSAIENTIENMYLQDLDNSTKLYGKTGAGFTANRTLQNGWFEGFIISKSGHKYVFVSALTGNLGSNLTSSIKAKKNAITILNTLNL
Chain of Beta-lactamase TEM (Escherichia coli) (P62593 whole entry): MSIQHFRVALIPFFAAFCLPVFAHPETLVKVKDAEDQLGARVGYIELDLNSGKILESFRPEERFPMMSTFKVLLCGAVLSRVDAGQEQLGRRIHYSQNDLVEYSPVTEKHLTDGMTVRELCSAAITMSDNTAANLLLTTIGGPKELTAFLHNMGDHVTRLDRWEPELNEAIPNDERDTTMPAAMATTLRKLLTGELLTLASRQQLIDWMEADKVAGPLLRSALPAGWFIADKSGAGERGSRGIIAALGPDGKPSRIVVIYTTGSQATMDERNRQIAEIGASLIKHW
Chain of Beta-lactamase (Enterobacter cloacae) (P05364 21-381 limits assumed): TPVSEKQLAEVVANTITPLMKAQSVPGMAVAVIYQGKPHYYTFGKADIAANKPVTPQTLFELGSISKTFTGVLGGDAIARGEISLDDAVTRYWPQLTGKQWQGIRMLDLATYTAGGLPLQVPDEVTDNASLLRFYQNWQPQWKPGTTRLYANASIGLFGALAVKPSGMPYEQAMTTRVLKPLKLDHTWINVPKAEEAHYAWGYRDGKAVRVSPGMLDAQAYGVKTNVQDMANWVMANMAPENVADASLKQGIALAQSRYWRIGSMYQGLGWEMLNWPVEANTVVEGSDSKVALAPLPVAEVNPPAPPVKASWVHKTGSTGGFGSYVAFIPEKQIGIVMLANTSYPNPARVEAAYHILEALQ

Row | MIC [1] | MIC [2] | MIC [3] | MIC [4] | MIC [5] | MIC [6] | MIC [7] | MIC [8] | MIC [9] | MIC [10] | MIC [11] | MIC [12] | MIC [13] | MIC [14] | MIC [15] | MIC [16] | MIC [17] | Compound
1 | > 100 µg/mL | > 100 µg/mL | > 100 µg/mL | 6.25 µg/mL | 1.56 µg/mL | 6.25 µg/mL | 3.12 µg/mL | > 100 µg/mL | > 100 µg/mL | < 0.39 µg/mL | < 0.39 µg/mL |  |  |  |  |  |  | C[C@H](O)[C@H]1C(=O)N2[C@@H]1S/C(=C\CO)[C@@H]2C(=O)O
2 |  |  |  |  |  |  |  |  |  |  |  | 100 µg/mL (≈ 286 µM) | > 100 µg/mL | > 100 µg/mL | 1.56 µg/mL (≈ 4.46 µM) | > 100 µg/mL | 12.5 µg/mL (≈ 35.8 µM) | CC1(C)S[C@@H]2[C@H](NC(=O)[C@H](N)c3ccccc3)C(=O)N2[C@H]1C(=O)O
